# Measured values: ChEMBL document CHEMBL4190184, “Synthesis and Biological Evaluation of Benzocyclooctene-based and Indene-based Anticancer Agents that Function as Inhibitors of Tubulin Polymerization” (Medchemcomm, 2016)
# pIC50: −log10 of the molar value. Activity calls are given as the source filed them. The rule behind the calls is not given here.
# Experiments:
# [1] = Inhibition of bovine brain tubulin polymerization preincubated for 15 mins followed by GTP addition measured after 20 mins by spectrophotometric method; parameters: species or system Bos taurus
# NCI-H460 = experiment: Growth inhibition of human NCI-H460 cells after 48 hrs by SRB assay; format: functional; settings: NCI-H460, 48 h
# DU-145 = experiment: Growth inhibition of human DU145 cells after 48 hrs by SRB assay; format: functional; settings: DU-145, 48 h
# SK-OV-3 = experiment: Growth inhibition of human SKOV3 cells after 48 hrs by SRB assay; format: functional; settings: SK-OV-3, 48 h
# MCF7 [2] = experiment: Induction of vascular disruption in human luc-GFP-mCherry-tagged MCF7 cells implanted in SCID-NOD mouse assessed as reduction in bioluminescence at 120 mg/kg, ip administered as single dose measured at 4 hrs post dose by luciferase reporter gene based imaging analysis relative to control; format: functional; parameters: scale not given: the % may be the effect or the level left
# MCF7 [3] = experiment: Induction of vascular disruption in human luc-GFP-mCherry-tagged MCF7 cells implanted in SCID-NOD mouse assessed as reduction in bioluminescence at 120 mg/kg, ip administered as single dose measured at 24 to 48 hrs post dose by luciferase reporter gene based imaging analysis; format: functional, organism-based
# MCF7 [4] = experiment: Induction of necrosis in human luc-GFP-mCherry-tagged MCF7 cells implanted in SCID-NOD mouse at 120 mg/kg, ip administered as single dose measured after 48 hrs by haematoxylin and eosin staining based microscopy; format: functional, organism-based
# Bos taurus = species: Bos taurus; experiment: Inhibition of [3H]colchicine binding to bovine brain tubulin at 5 uM after 10 mins by scintillation counting method relative to control
SMILES,pIC50 [1],GI50 (NCI-H460),GI50 (DU-145),GI50 (SK-OV-3),Activity (MCF7 [2]),Activity (MCF7 [3]),Activity (MCF7 [4]),inhibition (Bos taurus)
COc1cc(/C2=C/CCCCc3c2ccc(OC)c3OP(=O)([O-])[O-])cc(OC)c1OC.[Na+].[Na+],< 4.70,26 nM,41 nM,36.6 nM,80%,Active,Active,
COc1ccc2c(c1)CCCC/C=C\2c1cc(OC)c(OC)c(OC)c1,5.52,431 nM,570 nM,400 nM,,,,29%
COc1ccc(/C=C\c2cc(OC)c(OC)c(OC)c2)cc1OP(=O)(O)O [FOSBRETABULIN],< 4.70,2.82 nM,3.36 nM,1.9 nM,80%,,Active,
COc1cc(/C2=C/CCCCc3c2ccc(OC)c3OC)cc(OC)c1OC,5.35,395 nM,448 nM,512 nM,,,,31%
COc1cc(C2=CCc3c2ccc(OC)c3OP(=O)(O)O)cc(OC)c1OC,< 4.70,1500 nM,3340 nM,334 nM,,,,
COc1cc(C2=CCc3c2ccc(OC)c3OC)cc(OC)c1OC,< 4.70,42200 nM,34600 nM,9460 nM,,,,
COc1ccc2c(c1O)CCCC/C=C\2c1cc(OC)c(OC)c(OC)c1,5.92,107 nM,105 nM,81.1 nM,,,,78%
COc1ccc2c(c1)CC=C2c1cc(OC)c(OC)c(OC)c1,< 4.70,4020 nM,4660 nM,6150 nM,,,,
COc1ccc2c(c1O)CC=C2c1cc(OC)c(OC)c(OC)c1,4.96,388 nM,362 nM,704 nM,,,,17%
